Assay results reported in US20040209849A1, “Use of effectors of the central cholinergic nervous system for treatment of delirium” (priority 1998, published 2004).

System: non-anticholinergic delirium (lithium poisoning, severe hyperactive delirium)
Assay: Individual case: treatment of a non-anticholinergic (lithium poisoning) delirium with orally administered rivastigmine
Format: in vivo, human
Conditions: patient, after 48 hours of therapy at 2×1.5 mg
Source text: Treatment of a non-anticholinergic delirium with an orally administered modern inhibitor of acetylcholine esterase, rivastigmine
A patient had suffered from manic-depressive disease. Until recently there were no mental disintegration phenomena. After a urinary tract infection with lithium therapy of the manic-depressive condition, lithium poisoning occurred with a severe hyperactive delirium which forced the patient to be admitted to a hospital on an in-patient ward. These lithium poisoning deliria generally subside completely only after 6-8 weeks. The patient was transferred to a private clinic after 4 days and was highly psychotic, urinated in the corner of the room, talked to the lamp on the night table, hallucinated strange individuals and dwarves in the room, repeatedly fled the ward, believed that the nursing personnel wanted to kill them, was extremely agitated in motor response and restless, fumbled around with the blanket and phone cord, fell asleep repeatedly during the day, but remained up all night. The patient cried and laughed in alternation, suddenly became afraid again and again and then laughed. All these symptoms were very unstable, highly varied, but the patient was not actually responsive on the admission date. On the Trzepacz scale of delirium (Psychiatry Research, 23, (1988), […]) a score of 29 (of a possible 32) corresponding to a severe delirium was reached. […]

For CCN(C)C(=O)Oc1cccc([C@H](C)N(C)C)c1 [rivastigmine], the “clinical state after therapy” value was “the patient was oriented, no longer hallucinated” and the “delirium score on the Trzepacz scale of delirium” value (score before therapy 29 (of a possible 32)) was 8.
